“And” between values parts separate entries of the source, which are not always exact repeats. Equal entries are not always repeated.
Columns and labels:
[1] = target: T1, luciferase (derived from Photinus pyralis of North America product firefly) (Photinus pyralis, UniProt P08659); assay: Measurement of the bioluminescence spectra (luminescent spectrum of substrate with luciferase, ATP-Mg); format: biochemical; settings: for luminescent wavelength (maximum wavelength of the bioluminescence spectrum): potassium phosphate buffer pH 8.0, substrate solution 2.5 mM, exposure 60 seconds; for color of the luminescence: FIG. 1
T1 construct: purchased Sigma-Aldrich Corporation or Promega KK
Procedure: Measurement of Luminescent Spectrum
They were measured using feeble luminescence fluorescent spectra device AB-1850 manufactured by ATTO Co., Ltd. All the measured spectra were the spectra which calibrated with the characteristic of the detector.
For the luciferase (derived from Photinus pyralis of North America product firefly), was used the recombination type manufactured by Sigma-Aldrich Corporation or Promega KK.
For ATP-Mg the product manufactured by Sigma-Aldrich Corporation was used.
The Substrate was weighted with an electronic balance, and it was diluted. The phosphate-buffered saline (50 mM, pH 6.0) was used in the case of the chemiluminescence measurement, and t-butanol was used in the case of the bioluminescence as a solvent.
The luciferase was diluted with Tris-HCl buffer solution (50 mM, pH 8.0 s) to become 1 μg/μl and divided. This was used as stocked solution, so that was diluted to be used each time. Note that, the stock solutions were stored in a freezer of −80 degrees Celsius.
ATP-Mg was diluted in the ultra pure water.
The solution of a potassium phosphate buffer (0.5 M, pH 8.0, 20 μl), the solution of substrate (2.5 mM, 20 μl) and enzyme solution (20 μl), then ATP-Mg solution (ten mM, 40 μl) were mixed in a 200 μL of a polystyrene tube, and measured the luminescent spectrum. The enzyme solution was used at the concentration of 17 μM, provided that enzymes at 1.7 μM and at 170 μM were used in the firefly luciferin (1) and the phenol type luciferin respectively. The exposure time for the measurement of the luminescent spectrum was 60 seconds, provided that the firefly luciferin was five seconds.

[2] = luciferin derivative, patent document 1; cited from earlier work
[3] = Photinus pyralis luciferase, ATP-Mg

T1 sequence (P08659 whole entry): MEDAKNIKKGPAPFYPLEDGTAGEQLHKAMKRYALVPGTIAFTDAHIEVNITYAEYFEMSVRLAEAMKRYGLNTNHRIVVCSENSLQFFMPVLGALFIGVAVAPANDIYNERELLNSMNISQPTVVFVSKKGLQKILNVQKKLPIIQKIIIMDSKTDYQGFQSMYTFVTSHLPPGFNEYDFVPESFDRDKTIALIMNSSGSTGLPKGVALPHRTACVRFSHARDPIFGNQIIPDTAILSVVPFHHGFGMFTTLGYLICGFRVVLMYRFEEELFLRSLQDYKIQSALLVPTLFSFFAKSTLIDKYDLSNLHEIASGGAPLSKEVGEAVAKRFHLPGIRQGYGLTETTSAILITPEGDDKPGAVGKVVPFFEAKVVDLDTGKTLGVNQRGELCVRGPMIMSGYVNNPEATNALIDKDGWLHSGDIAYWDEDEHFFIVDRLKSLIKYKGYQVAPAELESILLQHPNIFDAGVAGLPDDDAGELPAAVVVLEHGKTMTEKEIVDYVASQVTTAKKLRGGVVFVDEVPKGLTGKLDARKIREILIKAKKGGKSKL

| Compound | luminescent wavelength (maximum wavelength of the bioluminescence spectrum) [1, 3] | melting point | color of the luminescence [1] | also measured |
| --- | --- | --- | --- | --- |
| O=C(O)[C@H]1CSC(/C=C/c2ccc(O)cc2)=N1 [analogs 8] | 520 nm | 138 to 140 °C (dec.) |  |  |
| Nc1ccc2nc(C3=N[C@@H](C(=O)O)CS3)sc2c1 [Aminoluciferin] |  |  |  | luminescence wavelength [2]: About 610 nm |
| CN(C)c1ccc(/C=C/C=C/C2=N[C@@H](C(=O)O)CS2)cc1 [analogs II, dimethyl aniline-diene type luciferin] | 445 nm and > 680 nm |  | blue |  |
| O=C(O)[C@H]1CSC(/C=C/c2cccc(O)c2)=N1 [analogs 9] |  | 163 to 165 °C (dec.) |  | luminescent activity as substrate ([1]; Photinus pyralis luciferase, ATP-Mg, pH 8.0): did not luminescent |
| CN(C)c1ccc(/C=C/C2=N[C@@H](C(=O)O)CS2)cc1 [analogs III, dimethyl aniline-monoene type luciferin] | 565 nm |  | yellow green |  |
| O=C(O)[C@H]1CSC(c2ccc(O)cc2)=N1 [analogs 7] | 415 nm | 200 to 204 °C (dec.) |  |  |
| CN(C)c1ccc(C2=N[C@@H](C(=O)O)CS2)cc1 [analogs IV, dimethyl aniline type luciferin] |  |  | red | luminescent wavelength (maximum wavelength of the bioluminescence spectrum) ([1]; Photinus pyralis luciferase, ATP-Mg, listed as IV): 680 nm and 445 nm; luminescent wavelength (maximum wavelength of the bioluminescence spectrum) ([1]; Photinus pyralis luciferase, ATP-Mg, listed as dimethyl aniline type luciferin): about 445 nm |
